In ChEMBL document CHEMBL4043199, “Synthesis and optimization of 4,5,6,7-tetrahydrooxazolo[4,5-c]pyridines as potent and orally-active metabotropic glutamate receptor 5 negative allosteric modulators” (Bioorg Med Chem Lett, 2017):
In brackets after ≈: the same amount, converted by molar mass. One block for each compound: values may come before it.

Assays:
[1] = Metabolic stability in human hepatic microsomes assessed as parent compound remaining at 1 uM after 30 mins in presence of NADPH by LC-MS/MS analysis relative to control; type: ADME, Microsome; settings: liver microsomes, read-out: Stability
[2] = Metabolic stability in rat hepatic microsomes assessed as parent compound remaining at 1 uM after 30 mins in presence of NADPH by LC-MS/MS analysis relative to control; type: ADME, Microsome; settings: liver microsomes, read-out: Stability
[3] = target: Metabotropic glutamate receptor 5 (Homo sapiens, UniProt P41594); test: Negative allosteric modulation of human recombinant mGluR5 expressed in HEK293 cells assessed as inhibition of glutamate-induced calcium mobilization preincubated for 2 mins followed glutamate addition measured by fluorescence assay; type: functional, cell-based
Rattus norvegicus [4] = test: Ex vivo receptor occupancy at mGluR5 in Sprague-Dawley rat brain po administered daily for 4 days in presence of [3H]-MPEPy by liquid scintillation counting method; type: functional, organism-based
[5] = Aqueous solubility of compound at pH 7.4; type: physicochemical; settings: aqueous medium
Cytochrome P450 3A4 = Cytochrome P450 3A4 (Homo sapiens, UniProt P08684); test: Inhibition of CYP3A4 in human liver microsomes using midazolam as substrate after 10 mins by LC-MS/MS analysis; type: ADME
[6] = Half life in rat at 1 mg/kg, iv; type: ADME, organism-based; settings: in vivo
Cytochrome P450 2D6 = Cytochrome P450 2D6 (Homo sapiens, UniProt P10635); test: Inhibition of CYP2D6 in human liver microsomes using bufuralol as substrate after 10 mins by LC-MS/MS analysis; type: ADME
[7] = AUC in monkey at 0.5 mg/kg, iv; type: ADME, organism-based, Macaca mulatta; settings: rhesus monkey, in vivo
[8] = Permeability of the compound at pH 7.4 by PAMPA; type: physicochemical; settings: read-out: permeability
Salmonella typhimurium = test: Genotoxicity in Salmonella typhimurium by Ames test; type: toxicity; settings: salmonella enterica subsp. enterica serovar typhimurium
[9] = Cmax in monkey at 10 mg/kg, po; type: ADME, organism-based, Macaca mulatta; design: dose 10 mg/kg, route oral; settings: rhesus monkey, in vivo
Cytochrome P450 1A2 = target: T1, Cytochrome P450 1A2 (Homo sapiens, UniProt P05177); test: Inhibition of CYP1A2 in human liver microsomes using phenacetin as substrate after 10 mins by LC-MS/MS analysis; type: ADME
T1 sequence (P05177 whole entry): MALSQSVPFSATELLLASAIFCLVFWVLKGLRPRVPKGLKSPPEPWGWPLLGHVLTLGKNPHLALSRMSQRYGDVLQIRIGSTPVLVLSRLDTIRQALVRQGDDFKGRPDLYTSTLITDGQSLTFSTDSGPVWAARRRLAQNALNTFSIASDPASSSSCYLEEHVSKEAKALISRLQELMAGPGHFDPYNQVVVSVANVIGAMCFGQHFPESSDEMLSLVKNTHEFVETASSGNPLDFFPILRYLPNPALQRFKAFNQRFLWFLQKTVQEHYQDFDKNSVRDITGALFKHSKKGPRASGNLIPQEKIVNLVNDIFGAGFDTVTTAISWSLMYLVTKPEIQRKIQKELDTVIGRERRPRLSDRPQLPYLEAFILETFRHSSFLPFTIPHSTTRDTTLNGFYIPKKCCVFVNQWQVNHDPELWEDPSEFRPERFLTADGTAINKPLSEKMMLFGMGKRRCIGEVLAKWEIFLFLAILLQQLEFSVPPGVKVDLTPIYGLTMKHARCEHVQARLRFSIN

[10] = Volume of distribution at steady state in monkey at 0.5 mg/kg, iv after 24 hrs; type: ADME, organism-based, Macaca mulatta; settings: rhesus monkey, in vivo, read-out: Vdss
Rattus norvegicus [11] = test: Ex vivo receptor occupancy at mGluR5 in Sprague-Dawley rat brain at 1 mg/kg, po administered daily for 4 days in presence of [3H]-MPEPy by liquid scintillation counting method relative to control; type: functional
Cytochrome P450 2C8 = target: T2, Cytochrome P450 2C8 (Homo sapiens, UniProt P10632); test: Inhibition of CYP2C8 in human liver microsomes using amodiaquine as substrate after 10 mins by LC-MS/MS analysis; type: ADME
T2 sequence (P10632 whole entry): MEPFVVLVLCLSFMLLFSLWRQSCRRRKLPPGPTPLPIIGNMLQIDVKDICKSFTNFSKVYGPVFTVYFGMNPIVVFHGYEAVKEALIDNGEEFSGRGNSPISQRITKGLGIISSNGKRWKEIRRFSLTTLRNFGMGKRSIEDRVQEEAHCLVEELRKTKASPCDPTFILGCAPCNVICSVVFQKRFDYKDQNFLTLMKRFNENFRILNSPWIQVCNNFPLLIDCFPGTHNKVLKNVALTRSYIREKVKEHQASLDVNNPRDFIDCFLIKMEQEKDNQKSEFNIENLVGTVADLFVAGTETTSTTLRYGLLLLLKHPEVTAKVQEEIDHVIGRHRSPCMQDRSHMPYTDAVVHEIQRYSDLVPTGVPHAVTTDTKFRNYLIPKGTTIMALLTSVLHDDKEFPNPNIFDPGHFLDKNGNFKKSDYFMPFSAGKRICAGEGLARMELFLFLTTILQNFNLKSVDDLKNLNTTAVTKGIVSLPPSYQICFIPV

Cytochrome P450 2C9 = Cytochrome P450 2C9 (Homo sapiens, UniProt P11712); test: Inhibition of CYP2C9 in human liver microsomes using diclofenac as substrate after 10 mins by LC-MS/MS analysis; type: ADME
[12] = AUC in rat at 10 mg/kg, po; type: ADME, organism-based; settings: in vivo
[13] = Volume of distribution at steady state in rat at 1 mg/kg, iv after 24 hrs; type: ADME, organism-based; settings: in vivo, read-out: Vdss
[14] = Half life in monkey at 0.5 mg/kg, iv; type: ADME, organism-based, Macaca mulatta; settings: rhesus monkey, in vivo
[15] = target: Voltage-gated inwardly rectifying potassium channel KCNH2 (Homo sapiens, UniProt Q12809); test: Inhibition of human ERG
[16] = Oral bioavailability in monkey at 10 mg/kg; type: ADME, organism-based, Macaca mulatta; settings: rhesus monkey, in vivo
Cytochrome P450 2C19 = Cytochrome P450 2C19 (Homo sapiens, UniProt P33261); test: Inhibition of CYP2C19 in human liver microsomes using (S)-mephenytoin as substrate after 10 mins by LC-MS/MS analysis; type: ADME
[17] = […] of CYP450 in human liver microsomes as substrate after 10 mins by LC-MS/MS analysis; type: ADME
[18] = Oral bioavailability in rat at 10 mg/kg; type: ADME, organism-based; settings: in vivo
[19] = Clearance in monkey at 0.5 mg/kg, iv after 24 hrs; type: ADME, organism-based, Macaca mulatta; settings: rhesus monkey, in vivo
[20] = AUC in monkey at 10 mg/kg, po; type: ADME, organism-based, Macaca mulatta; settings: rhesus monkey, in vivo
[21] = AUC in rat at 1 mg/kg, iv; type: ADME, organism-based; settings: in vivo
P-gp = test: Substrate activity at P-gp (unknown origin) assessed as efflux ratio; type: ADME; settings: human, not told
[22] = Cmax in rat at 10 mg/kg, po; type: ADME, organism-based; design: dose 10 mg/kg, route oral; settings: in vivo
Cytochrome P450 2A6 = target: T3, Cytochrome P450 2A6 (Homo sapiens, UniProt P11509); test: Inhibition of CYP2A6 in human liver microsomes using coumarin as substrate after 10 mins by LC-MS/MS analysis; type: ADME
T3 sequence (P11509 whole entry): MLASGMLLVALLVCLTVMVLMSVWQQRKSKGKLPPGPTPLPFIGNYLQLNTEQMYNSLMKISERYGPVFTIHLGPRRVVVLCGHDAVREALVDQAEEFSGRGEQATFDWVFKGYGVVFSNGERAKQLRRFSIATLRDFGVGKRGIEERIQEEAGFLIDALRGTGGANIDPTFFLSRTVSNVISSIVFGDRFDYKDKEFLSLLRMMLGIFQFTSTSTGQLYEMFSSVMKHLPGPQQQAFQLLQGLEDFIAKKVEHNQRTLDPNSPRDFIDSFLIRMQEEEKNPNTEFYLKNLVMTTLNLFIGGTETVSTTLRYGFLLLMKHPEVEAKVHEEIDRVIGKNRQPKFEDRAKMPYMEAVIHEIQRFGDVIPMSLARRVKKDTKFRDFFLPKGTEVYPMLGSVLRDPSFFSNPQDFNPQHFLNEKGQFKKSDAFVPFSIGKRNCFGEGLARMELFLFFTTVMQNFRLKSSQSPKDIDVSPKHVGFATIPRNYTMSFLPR

[23] = Clearance in rat at 1 mg/kg, iv after 24 hrs; type: ADME, organism-based; settings: in vivo

Chain of Metabotropic glutamate receptor 5 (P41594 whole entry): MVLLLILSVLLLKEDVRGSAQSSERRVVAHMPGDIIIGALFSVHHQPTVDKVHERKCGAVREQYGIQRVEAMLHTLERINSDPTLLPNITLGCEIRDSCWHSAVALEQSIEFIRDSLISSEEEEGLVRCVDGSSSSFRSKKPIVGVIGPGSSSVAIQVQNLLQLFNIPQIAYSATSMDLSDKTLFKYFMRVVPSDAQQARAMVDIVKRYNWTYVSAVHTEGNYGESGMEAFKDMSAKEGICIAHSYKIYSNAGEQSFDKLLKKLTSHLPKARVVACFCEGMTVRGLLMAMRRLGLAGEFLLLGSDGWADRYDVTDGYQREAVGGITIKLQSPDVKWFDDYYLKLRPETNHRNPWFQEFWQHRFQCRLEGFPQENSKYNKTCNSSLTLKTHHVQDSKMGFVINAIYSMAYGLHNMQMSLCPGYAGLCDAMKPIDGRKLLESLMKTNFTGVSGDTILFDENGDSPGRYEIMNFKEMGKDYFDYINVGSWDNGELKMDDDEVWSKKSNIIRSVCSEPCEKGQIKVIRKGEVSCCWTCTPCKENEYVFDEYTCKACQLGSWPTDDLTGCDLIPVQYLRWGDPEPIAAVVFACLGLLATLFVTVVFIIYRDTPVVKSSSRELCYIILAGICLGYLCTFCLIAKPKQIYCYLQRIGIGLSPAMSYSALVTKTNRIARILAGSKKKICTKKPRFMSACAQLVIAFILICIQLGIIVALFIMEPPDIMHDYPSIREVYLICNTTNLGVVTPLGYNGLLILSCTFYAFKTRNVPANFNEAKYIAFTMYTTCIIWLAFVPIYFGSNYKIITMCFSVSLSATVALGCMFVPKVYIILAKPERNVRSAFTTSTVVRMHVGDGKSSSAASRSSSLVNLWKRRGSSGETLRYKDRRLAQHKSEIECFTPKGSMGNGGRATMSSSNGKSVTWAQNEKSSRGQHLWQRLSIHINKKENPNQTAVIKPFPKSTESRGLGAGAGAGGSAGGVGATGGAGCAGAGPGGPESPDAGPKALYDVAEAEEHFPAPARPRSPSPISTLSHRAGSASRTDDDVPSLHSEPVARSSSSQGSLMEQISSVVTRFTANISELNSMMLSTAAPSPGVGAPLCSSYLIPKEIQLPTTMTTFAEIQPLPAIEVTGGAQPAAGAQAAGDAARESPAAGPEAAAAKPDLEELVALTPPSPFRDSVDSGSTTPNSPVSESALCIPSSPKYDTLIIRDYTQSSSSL
Chain of Voltage-gated inwardly rectifying potassium channel KCNH2 (Q12809 whole entry): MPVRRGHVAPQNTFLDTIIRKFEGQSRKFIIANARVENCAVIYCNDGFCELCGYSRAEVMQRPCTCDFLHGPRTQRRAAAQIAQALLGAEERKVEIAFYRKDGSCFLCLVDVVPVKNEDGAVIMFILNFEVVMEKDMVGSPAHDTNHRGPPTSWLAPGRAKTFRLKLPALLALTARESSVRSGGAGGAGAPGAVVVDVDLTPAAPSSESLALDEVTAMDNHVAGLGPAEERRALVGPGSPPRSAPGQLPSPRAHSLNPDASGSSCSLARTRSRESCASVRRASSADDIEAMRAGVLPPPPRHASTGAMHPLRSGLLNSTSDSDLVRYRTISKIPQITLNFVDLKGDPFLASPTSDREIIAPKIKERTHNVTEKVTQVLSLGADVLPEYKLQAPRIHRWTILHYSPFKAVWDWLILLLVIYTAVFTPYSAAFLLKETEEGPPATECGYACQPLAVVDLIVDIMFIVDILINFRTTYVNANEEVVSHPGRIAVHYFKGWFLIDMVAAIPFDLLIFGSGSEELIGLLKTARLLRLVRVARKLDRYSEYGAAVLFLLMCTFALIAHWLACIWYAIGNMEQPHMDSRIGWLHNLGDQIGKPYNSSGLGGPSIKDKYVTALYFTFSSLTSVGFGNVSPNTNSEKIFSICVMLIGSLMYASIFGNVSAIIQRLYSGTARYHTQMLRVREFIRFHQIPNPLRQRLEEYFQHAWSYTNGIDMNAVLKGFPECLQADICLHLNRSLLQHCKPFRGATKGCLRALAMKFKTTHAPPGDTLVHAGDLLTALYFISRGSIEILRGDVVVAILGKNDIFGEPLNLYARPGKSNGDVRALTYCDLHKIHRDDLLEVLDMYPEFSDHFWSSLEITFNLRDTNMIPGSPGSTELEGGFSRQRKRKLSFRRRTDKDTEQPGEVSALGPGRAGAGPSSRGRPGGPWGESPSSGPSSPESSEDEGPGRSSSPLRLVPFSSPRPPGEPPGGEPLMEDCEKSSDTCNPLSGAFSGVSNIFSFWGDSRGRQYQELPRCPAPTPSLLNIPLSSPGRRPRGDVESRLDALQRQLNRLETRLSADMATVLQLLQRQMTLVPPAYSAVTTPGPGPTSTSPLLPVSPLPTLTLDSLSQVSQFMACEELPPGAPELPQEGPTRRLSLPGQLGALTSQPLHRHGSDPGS
Chain of Cytochrome P450 2C19 (P33261 whole entry): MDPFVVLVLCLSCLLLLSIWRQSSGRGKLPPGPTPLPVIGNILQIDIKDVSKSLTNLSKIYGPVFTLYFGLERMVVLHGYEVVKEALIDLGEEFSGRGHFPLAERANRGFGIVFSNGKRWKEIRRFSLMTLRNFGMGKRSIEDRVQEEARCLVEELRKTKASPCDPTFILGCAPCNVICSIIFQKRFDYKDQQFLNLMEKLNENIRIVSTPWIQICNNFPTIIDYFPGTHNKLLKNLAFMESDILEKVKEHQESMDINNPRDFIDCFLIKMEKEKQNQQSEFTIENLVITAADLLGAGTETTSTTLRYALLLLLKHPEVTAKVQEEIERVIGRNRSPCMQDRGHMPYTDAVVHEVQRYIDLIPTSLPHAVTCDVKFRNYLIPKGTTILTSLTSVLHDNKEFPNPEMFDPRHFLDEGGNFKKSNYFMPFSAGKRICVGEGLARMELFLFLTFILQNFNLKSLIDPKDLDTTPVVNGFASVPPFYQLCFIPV
Chain of Cytochrome P450 2D6 (P10635 whole entry): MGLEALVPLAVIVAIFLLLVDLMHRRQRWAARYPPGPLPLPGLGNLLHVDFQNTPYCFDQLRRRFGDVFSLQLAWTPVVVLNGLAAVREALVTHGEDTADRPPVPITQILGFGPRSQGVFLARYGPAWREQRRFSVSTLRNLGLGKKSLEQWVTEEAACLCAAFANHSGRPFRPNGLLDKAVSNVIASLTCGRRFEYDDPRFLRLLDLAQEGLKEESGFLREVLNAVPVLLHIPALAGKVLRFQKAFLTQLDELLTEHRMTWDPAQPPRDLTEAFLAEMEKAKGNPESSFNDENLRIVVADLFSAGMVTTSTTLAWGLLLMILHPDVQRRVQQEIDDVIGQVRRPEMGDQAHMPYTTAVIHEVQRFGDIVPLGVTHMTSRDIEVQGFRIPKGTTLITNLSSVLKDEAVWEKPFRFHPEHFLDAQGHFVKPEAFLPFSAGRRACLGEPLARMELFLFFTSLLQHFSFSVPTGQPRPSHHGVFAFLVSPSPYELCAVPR
Chain of Cytochrome P450 2C9 (P11712 whole entry): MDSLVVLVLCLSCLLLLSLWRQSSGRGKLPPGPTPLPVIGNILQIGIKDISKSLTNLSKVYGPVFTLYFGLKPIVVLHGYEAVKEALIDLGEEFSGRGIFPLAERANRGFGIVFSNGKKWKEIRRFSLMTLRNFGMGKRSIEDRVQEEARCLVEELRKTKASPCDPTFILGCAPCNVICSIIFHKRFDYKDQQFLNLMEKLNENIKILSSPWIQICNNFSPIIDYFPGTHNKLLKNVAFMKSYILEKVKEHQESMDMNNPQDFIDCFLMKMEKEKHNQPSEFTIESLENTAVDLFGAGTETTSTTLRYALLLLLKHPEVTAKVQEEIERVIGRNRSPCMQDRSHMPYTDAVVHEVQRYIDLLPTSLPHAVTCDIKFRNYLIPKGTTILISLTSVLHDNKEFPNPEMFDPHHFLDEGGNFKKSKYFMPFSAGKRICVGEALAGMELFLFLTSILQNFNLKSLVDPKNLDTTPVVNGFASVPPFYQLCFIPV
Chain of Cytochrome P450 3A4 (P08684 whole entry): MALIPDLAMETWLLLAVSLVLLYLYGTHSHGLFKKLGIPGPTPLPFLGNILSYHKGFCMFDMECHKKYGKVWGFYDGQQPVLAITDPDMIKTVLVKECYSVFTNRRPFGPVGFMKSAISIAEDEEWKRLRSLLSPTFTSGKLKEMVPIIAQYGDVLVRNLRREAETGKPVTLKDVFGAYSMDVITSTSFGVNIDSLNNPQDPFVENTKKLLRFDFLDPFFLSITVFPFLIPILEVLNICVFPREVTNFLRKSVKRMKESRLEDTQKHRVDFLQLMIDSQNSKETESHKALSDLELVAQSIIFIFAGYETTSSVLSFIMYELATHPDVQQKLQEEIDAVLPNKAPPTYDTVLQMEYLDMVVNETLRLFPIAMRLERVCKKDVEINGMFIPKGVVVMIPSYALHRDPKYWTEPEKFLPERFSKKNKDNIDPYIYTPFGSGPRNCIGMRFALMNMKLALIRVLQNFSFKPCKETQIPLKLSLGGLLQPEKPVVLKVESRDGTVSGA

remaining at 0.5 h, 1 µM [1]: > 97%
remaining at 0.5 h, 1 µM [2]: > 97%
IC50 [3]: 403 nM
SMILES: N#Cc1cc(F)cc(C(=O)N2CCc3oc(-c4ccc(F)cn4)nc3C2)c1

remaining at 0.5 h, 1 µM [1]: > 91%
remaining at 0.5 h, 1 µM [2]: > 91%
IC50 [3]: 58 nM
SMILES: O=C(c1ccccc1F)N1CCc2oc(-c3ccc(F)cn3)nc2C1

Activity (Rattus norvegicus [4]): Dose-dependent effect
solubility [5]: 6 µg/mL (≈ 16 µM)
IC50 (Cytochrome P450 3A4): > 50 µM
remaining at 0.5 h, 1 µM [1]: 91 to 97%
half-life [6]: 534 min
IC50 (Cytochrome P450 2D6): > 50 µM
AUC [7]: 5090 ng·h/mL
Papp [8]: 37.1 ×10⁻⁶ cm/s
remaining at 0.5 h, 1 µM [2]: 91 to 97%
Cmax [9]: 2880 ng/mL
IC50 (Cytochrome P450 1A2): > 50 µM
Vd [10]: 2.1 L/kg
IC50 (Cytochrome P450 2C8): > 50 µM
IC50 [3]: 38 nM
IC50 (Cytochrome P450 2C9): > 50 µM
AUC [12]: 34500 ng·h/mL
Vd [13]: 2.4 L/kg
half-life [14]: 966 min
bioavailability [16]: 61%
IC50 (Cytochrome P450 2C19): > 50 µM
Activity [17]: Not Active
bioavailability [18]: 80%
clearance [19]: 1.7 mL/min/kg
AUC [20]: 62400 ng·h/mL
AUC [21]: 4340 ng·h/mL
efflux ratio (P-gp): 0.9
Cmax [22]: 1730 ng/mL
IC50 (Cytochrome P450 2A6): > 50 µM
clearance [23]: 3.8 mL/min/kg
SMILES: O=C(c1cc(F)cc(Cl)c1)N1CCc2oc(-c3ccc(F)cn3)nc2C1
Activity (Salmonella typhimurium): Non-Toxic
Occ (Rattus norvegicus [11]): 48%
IC50 [15]: 19 µM
